Here are results for 2 compounds from PMC9421656, “Beyond Retigabine: Design, Synthesis, and Pharmacological Characterization of a Potent and Chemically Stable Neuronal Kv7 Channel Activator with Anticonvulsant Activity” (Journal of Medicinal Chemistry, 2022).

Data set [1] can be described thus: In vitro metabolism assay (S9 fraction of human liver microsomes). It counts as in vitro ADME. As for the experimental part:
To further explore the metabolic stability of compounds 25, 26, and 60 in a biologically relevant model, they were tested in an in vitro metabolism assay (S9 fraction of human liver microsomes) using retigabine as a comparator.[33],[34] In this assay, a very small extent (4.7 ± 0.5%) of retigabine undergoes phase I metabolism, whereas a larger fraction (17.4 ± 1.2%) was metabolized in phase II reactions, as previously reported.[35]

Data set [2] is described as follows: Photostability under UV-visible light with HPLC analysis (degradation, dimer formation). It is filed as physicochemical. The settings on record: for % Degradation (3h, UV): 10 μM, buffered aqueous solution pH 7.4, 3 h UV-visible light, ± SD; for Dimers Formation: HPLC at 550 nm. The source says: Two different HPLC wavelengths were utilized: (a) […] to evaluate the decreased concentration of the starting molecule; (b) 550 nm to investigate the formation of phenazine/phenazinium dimers, as previously described.[10] Unfortunately, dimer formation was detected for all tested compounds, except for 23 and 24. […]. […]. The first group consisted of N4 (−X- in Table 2) substituted analogues, in which the tertiary amine is unavailable for the formation of phenazine dimers (compounds 25–28). […]. The third group included derivatives replacing hydrogen atoms with electron-withdrawing fluorine atoms at position R2 of the benzene-1,2,4-triamine core scaffold (compounds 59, 60), a strategy likely reducing the reactivity of N2 and N4. […].
(§1) Photostability experiments were performed by dissolving compounds in DMSO and then diluting in buffered aqueous solutions at pH 7.4 to a final concentration of 10 μM. 1 cm quartz cells, filled with the abovementioned solutions, were irradiated by a UV lamp (UV Consulting TQ 150 equipped with Duran 50 sleeve and 150 W power supply unit, Peschl, Germany) at a fixed distance of 20 cm from the UV source. Control samples were maintained at 37 °C, wrapped with aluminum foil to avoid light exposure, and used to assess chemical stability of the compounds. At predetermined intervals, aliquots were withdrawn and analyzed by UHPLC in order to assess the concentration decrease of the starting materials and the presence of the dimers usually formed by retigabine.
Photostability and chemical stability experiments were carried out on a Kinetex^TM C18 150 × 2.1 mm × 2.6 μm (100 Å) column (Phenomenex, Bologna, Italy). The optimal mobile phase consisted of 0.1% TFA/H2O v/v (A) and 0.1% TFA/ACN v/v (B). Analysis was performed in gradient elution as follows: 0–13.0 min, 5–65% B; 13–14.0 min, 65–95% B; 14–15.0 min, isocratic to 95% B; 15–15.01 min, 95–5% B; then 3 min for column re-equilibration. The flow rate was 0.5 mL min^–1. The column oven temperature was set to 45 °C. The injection volume was 7 μL of sample. The following PDA parameters were applied: sampling rate, 12.5 Hz; detector time constant, 0.160 s; cell temperature, 40 °C. Data acquisition was set in the range 190–800 nm, and chromatograms were monitored at 224 nm to assess the decrease in concentration of the starting material, while a wavelength of 550 nm was used to eventually detect dimerization.

The target of the next data set is Kv7.2/Kv7.3 channels (Homo sapiens, UniProt O43525+O43526). The data set is described as follows: Whole-cell patch-clamp electrophysiology in CHO cells expressing Kv7.2/Kv7.3. It counts as cell-based. Also noted: expressed in transfected cells; host or cells: CHO cells, transient transfection (pcDNA3.1, Lipofectamine 2000). The settings on record: for EC50: dose-response 0.01–30 μM. As for the experimental part:
Channel subunits were expressed in Chinese hamster ovary (CHO) cells by transient transfection, using plasmids containing cDNAs encoding human Kv7.2 and/or Kv7.3, all cloned in the pcDNA3.1 vector. According to the experimental protocol, these plasmids were expressed individually or in combination, together with a plasmid-expressing enhanced green fluorescent protein (Clontech, Palo Alto, CA) used as a transfection marker. Total cDNA in the transfection mixture was kept at 4 μg. CHO cells were grown in 100 mm plastic Petri dishes in Dulbecco’s modified Eagle’s medium containing 10% fetal bovine serum, nonessential amino acids (0.1 mM), penicillin (50 U/mL), and streptomycin ([…]) in a humidified atmosphere at 37 °C with 5% CO2.
Currents from CHO cells were recorded at room temperature (20–22 °C) using the whole-cell configuration of the patch-clamp technique, with glass micropipettes of 3–5 MΩ resistance. During the recording, constant perfusion of extracellular solution was maintained. […] The pipette (intracellular) solution contained (in mM): 140 KCl, 2 MgCl2, 10 EGTA, 10 HEPES, 5 Mg^2+-ATP, at pH 7.3–7.4, with KOH. […] To evaluate the activity of each compound on Kv7.2 + Kv7.3 currents, the cells were clamped at −80 mV and conductance–voltage curves (G/V curves; activation curves) were generated by normalizing to the maximal value of the instantaneous isopotential currents at 0 mV and expressing the normalized values as a function of the preceding voltages. Data were fit to a Boltzmann distribution of the following form: y = max/[1 + exp (V1/2 – V)/k], where V is the test potential, V1/2 is the half-activation potential, and k is the slope factor.
Indicated EC50 values are the mean of at least three independent experiments ± standard error of the mean (SEM).
Statistically significant differences in electrophysiological data were evaluated with the Student t test or with ANOVA followed by the Student–Newman–Keuls test when multiple groups were compared, with the threshold set at p < 0.05. […] Values are expressed as the […] mean ± standard error of the mean (SEM) of at least three cells recorded in at least three independent transfections.

Data set [3] in a line: Chemical stability in aqueous buffer without light exposure. It is filed as physicochemical. The settings on record: 3 h, avoiding UV light exposure. As for the experimental part:
[…]. The reduced electron availability at N2 and N4 due to the presence of fluorine atom in position 3 of compound 60 strongly reduces also the first photo-oxidative step, thus conferring remarkable photostability.
as §1
Photostability and chemical stability experiments were carried out on a Kinetex^TM C18 150 × 2.1 mm × 2.6 μm (100 Å) column (Phenomenex, Bologna, Italy). […] Data acquisition was set in the range 190–800 nm, and chromatograms were monitored at 224 nm to assess the decrease in concentration of the starting material, while a wavelength of 550 nm was used to eventually detect dimerization.

The mark [4] stands for this setting: S9 fraction of human liver microsomes.

Where two headings read alike, the source gives them in different places.

As a reminder, the log P is a log measure of how a compound divides between an organic and an aqueous phase. A lower log P goes with a more hydrophilic compound. For `CCOC(=O)Nc1ccc(NCc2ccc(F)cc2)cc1N` [RET, retigabine], in “Lipophilicity (log P)” (method not stated), the lipophilicity (log P) came out at 3.08. In addition, in data set [1] (setting [4]), the “Phase I turnover metabolism” value stood at 4.7 ± 0.5% and the “Phase II turnover metabolism” value is 17.4 ± 1.2%. In data set [2], the “% Degradation (3h, UV)” value was 61.3±0.1%. In data set [2] (3 h UV-visible light), the “Dimers Formation” value is on record as “Yes”.

The logP is the decadic logarithm of the partition coefficient of the neutral form, usually between octanol and water. Regarding `CC(C)(C)CC(=O)Nc1ccc(NCc2ccc(C(F)(F)F)cc2)c(F)c1N` [compound 60, N-(2-Amino-3-fluoro-4-((4-(trifluoromethyl)benzyl)amino)phenyl)-3,3-dimethylbutanamide], the “Potency relative to RL-81” value at Kv7.2/Kv7.3 channels was “about twice more potent than RL-81”. Also, the “Leftward shift in V1/2 (ΔV1/2)” value at Kv7.2/Kv7.3 channels (1 μM) is approximately 50 mV. Besides, the “Idrug/Icontrol (maximal current density)” value at Kv7.2/Kv7.3 channels (calculated at +20 mV) is recorded as 2.1 ± 0.3. In addition, on Kv7.2/Kv7.3 channels (current at +20 mV, read-out: Maximal currents EC50), the EC50 worked out at 60 ± 10 nM. The EC50 on Kv7.2/Kv7.3 channels (read-out: ΔV1/2 EC50) was found to be 150 ± 30 nM. Moreover, on Kv7.2/Kv7.3 channels (from ΔV1/2 EC50), the “Potency over retigabine as Kv7.2/Kv7.3 activator (fold/times)” value is on record as 16. The same compound showed a logP in the data set “Lipophilicity (log P)” of 4.74. Also, in data set [1] (human), the “Phase I turnover metabolism” value amounted to 8.2 ± 2.7% and the “Phase II turnover metabolism” value stood at 15.6 ± 0.3%. Besides, the “% Degradation (3h, UV)” value in data set [2] was found to be 34.8± 1.8%. Besides, in data set [2] (3 h UV-visible light), the “Dimers Formation” value is “failed to dimerize and No”. Moreover, in data set [2] (3 h UV-visible light, compared with retigabine), the “Photodegradation (in words)” value was “more photostable than retigabine”. In addition, the Chemical stability result in data set [3] is listed as “showed chemical stability”.
